Bounds are passed on as bounds.

Usually IC50 stands for the concentration that inhibits the measured activity by half.

The target in one test is QPCT (rhQPCT) (Homo sapiens (Human), UniProt Q16769). Put plainly: QPCT Enzymatic Activity Assay (coupled-enzyme fluorescent assay, H-Gln-AMC substrate). Format: biochemical. Conditions: rhQPCT 10-12 nM, 10 μM H-Gln-AMC; read-out: QPCT Inhibition IC50. As for the experimental part: QPCT activity was measured in a coupled-enzyme assay using the QPCT substrate, glutamine-7-amido-4-methylcoumarin (H-Gln-AMC, Bachem), which is converted to pyroglutamyl-AMC by QPCT. Pyroglutamyl-AMC is then converted to the fluorescent molecule, AMC, by incubation with the human enzyme pyroglutamyl peptidase-1 (PGPEP-1). […] Following the incubation, H-Gln-AMC substrate was diluted in assay buffer and added to each well for a final concentration of 10 μM. The reaction was incubated for 60 min at 37° C., before stopping it by boiling at 100° C. for 5 minutes and cooling the plate at 4° C. for 3 minutes. […] Following incubation, the fluorescence was measured with a plate reader using excitation at 380 nm and emission at 460 nm. […] Concentration-response-curves and IC50 values (Table 17) were generated using Collaborative Drug Discovery software.

The target of another test is QPCTL (Homo sapiens (Human), UniProt Q9NXS2). As to the kind of experiment: QPCTL Enzymatic Activity Assay (coupled-enzyme fluorescent assay, H-Gln-AMC substrate). Format: biochemical. Conditions: recombinant truncated human QPCTL 10-12 nM, 10 μM H-Gln-AMC; read-out: QPCTL Inhibition IC50. As for the experimental part:
Protein expression was induced when the bacterial culture OD600 was approximately 0.7 using 1 mM IPTG and the cells incubated at 20° C. for approximately 16 hours. The QPCTL was purified using nickel column purification, digested by TEV, followed by a second nickel column purification. The protein was further purified by size-exclusion chromatography using a Superdex™ 75 column. The final protein was concentrated using ultrafiltration tubes at a molecular weight cutoff of 10 kilodaltons and stored frozen in protein buffer (25 mM Tris pH 8.3, 150 mM NaCl).
QPCTL activity was measured in a coupled-enzyme assay using the QPCTL substrate, glutamine-7-amido-4-methylcoumarin (H-Gln-AMC, Bachem), which is converted to pyroglutamyl-AMC by QPCTL. Pyroglutamyl-AMC is then converted to the fluorescent molecule, AMC, by incubation with the human enzyme pyroglutamyl peptidase-1. […] Final concentrations of DMSO and test compounds were 2% and 30-100 μM, respectively. Following the incubation, H-Gln-AMC substrate was diluted in assay buffer and added to each well for a final concentration of 10 μM. The reaction was incubated for 60 min at 37° C., before stopping it by boiling at 100° C. for 5 minutes and cooling the plate at 4° C. for 3 minutes. […] Following incubation, the fluorescence was measured with a plate reader using excitation at 380 nm and emission at 460 nm. […] Concentration-response-curves and IC50 values (Table 17) were generated using curve fit software.

Sequence of QPCTL (Q9NXS2 53-382): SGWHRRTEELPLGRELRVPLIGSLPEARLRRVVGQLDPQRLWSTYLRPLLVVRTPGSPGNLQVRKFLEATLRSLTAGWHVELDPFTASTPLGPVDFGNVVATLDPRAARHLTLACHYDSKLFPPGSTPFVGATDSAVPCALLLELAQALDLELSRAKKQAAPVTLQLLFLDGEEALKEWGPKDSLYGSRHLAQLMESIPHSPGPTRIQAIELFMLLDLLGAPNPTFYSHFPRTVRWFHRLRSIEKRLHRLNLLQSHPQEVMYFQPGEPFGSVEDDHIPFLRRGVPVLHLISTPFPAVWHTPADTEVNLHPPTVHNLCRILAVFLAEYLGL
Sequence of QPCT (rhQPCT) (Q16769 29-361): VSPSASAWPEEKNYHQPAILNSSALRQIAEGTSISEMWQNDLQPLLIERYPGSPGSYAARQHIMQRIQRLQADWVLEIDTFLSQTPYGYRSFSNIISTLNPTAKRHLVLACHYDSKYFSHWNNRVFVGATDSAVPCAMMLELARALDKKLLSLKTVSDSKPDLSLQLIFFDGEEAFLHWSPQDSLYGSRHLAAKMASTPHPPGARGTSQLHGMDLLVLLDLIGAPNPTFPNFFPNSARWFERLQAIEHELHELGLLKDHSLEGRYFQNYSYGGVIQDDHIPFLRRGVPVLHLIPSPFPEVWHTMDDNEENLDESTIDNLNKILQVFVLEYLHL

Consider `Cn1ccc(-c2cnc(-c3ccc(F)nc3)c(N3CCC(c4nncn4C)CC3)c2C#N)n1` [Example 138, 6′-fluoro-5-(1-methyl-1H-pyrazol-3-yl)-3-(4-(4-methyl-4H-1,2,4-triazol-3-yl)piperidin-1-yl)-[2,3′-bipyridine]-4-carbonitrile], for which the IC50 at QPCT (rhQPCT) is 1000 to 10000 nM; on QPCTL it was > 10000 nM.

For the molecule `Cn1cnnc1C1CCN(c2c(C#N)cccc2-c2ccc(O)nc2)CC1` [Example 116, 3-(6-hydroxypyridin-3-yl)-2-(4-(4-methyl-4H-1,2,4-triazol-3-yl)piperidin-1-yl)benzonitrile], the IC50 on QPCT (rhQPCT) and on QPCTL was < 100 nM throughout.

`Cn1cnnc1C1CCN(c2c(C#N)cccc2-c2cncc3c2OCCN3CCO)CC1` [Example 23, 3-[4-(2-hydroxyethyl)-2H,3H,4H-pyrido[4,3-b][1,4]oxazin-8-yl]-2-[4-(4-methyl-4H-1,2,4-triazol-3-yl)piperidin-1-yl]benzonitrile]: the IC50 at QPCT (rhQPCT) and on QPCTL was 100 to 1000 nM in each case.

As for `Cn1cnnc1C1CCN(c2c(-c3ccc(F)nc3)ccc(OC3CCOC3)c2C#N)CC1` (single isomer, unassigned) [Example 89, 3-(6-fluoropyridin-3-yl)-2-(4-(4-methyl-4H-1,2,4-triazol-3-yl)piperidin-1-yl)-6-((tetrahydrofuran-3-yl)oxy)benzonitrile], the IC50 at QPCT (rhQPCT) and on QPCTL was < 100 nM each time.

Turning to `Cn1cnnc1C1CCN(c2c(C#N)cccc2-c2ccc3[nH]nc(O)c3c2)CC1` [Example 113, 3-(3-hydroxy-1H-indazol-5-yl)-2-(4-(4-methyl-4H-1,2,4-triazol-3-yl)piperidin-1-yl)benzonitrile], the IC50 on QPCT (rhQPCT) and at QPCTL was < 100 nM each time.

`Cn1ccc(-c2ccc(-c3cncc(B(O)O)c3)c(N3CCC(c4nncn4C)CC3)c2C#N)n1` [Example 126, (5-(3-cyano-4-(1-methyl-1H-pyrazol-3-yl)-2-(4-(4-methyl-4H-1,2,4-triazol-3-yl)piperidin-1-yl)phenyl)pyridin-3-yl)boronic acid]: the IC50 at QPCT (rhQPCT) and on QPCTL was < 100 nM each time.

Regarding `[2H]C([2H])([2H])n1cnnc1C1CCN(c2c(-c3ccnnc3)ccc(-c3cnn(C)c3)c2C#N)CC1` [Example 55, 6-(1-methyl-1H-pyrazol-4-yl)-2-(4-(4-(methyl-d3)-4H-1,2,4-triazol-3-yl)piperidin-1-yl)-3-(pyridazin-4-yl)benzonitrile], the IC50 on QPCT (rhQPCT) and at QPCTL was < 100 nM in each case.

Turning to `Cn1cc(-c2cnc(-c3ccc(F)nc3)c(N3CCC(c4nncn4C)CC3)c2C#N)cn1` [Example 139, 6′-fluoro-5-(1-methyl-1H-pyrazol-4-yl)-3-(4-(4-methyl-4H-1,2,4-triazol-3-yl)piperidin-1-yl)-[2,3′-bipyridine]-4-carbonitrile], the IC50 is 100 to 1000 nM on QPCT (rhQPCT) and > 10000 nM on QPCTL.

Regarding `Cn1cnnc1N1CCN(c2c(C#N)ccnc2-c2ccc(F)nc2)CC1` [Example 136, 6′-fluoro-3-(4-(4-methyl-4H-1,2,4-triazol-3-yl)piperazin-1-yl)-[2,3′-bipyridine]-4-carbonitrile], the IC50 at QPCT (rhQPCT) and at QPCTL was < 100 nM in each case.

As for `Cn1ncc(-c2cccc(C#N)c2N2CCC(c3nncn3C)CC2)n1` [Example 99, 3-(2-methyl-2H-1,2,3-triazol-4-yl)-2-(4-(4-methyl-4H-1,2,4-triazol-3-yl)piperidin-1-yl)benzonitrile], the IC50 on QPCT (rhQPCT) was < 100 nM; on QPCTL, 100 to 1000 nM.

As to `COc1cnc(-c2ccc(F)nc2)c(N2CCC(c3nncn3C)CC2)c1C#N` [Example 137, 6′-fluoro-5-methoxy-3-(4-(4-methyl-4H-1,2,4-triazol-3-yl)piperidin-1-yl)-[2,3′-bipyridine]-4-carbonitrile], the values for the IC50 on QPCT (rhQPCT) and at QPCTL were 100 to 1000 nM and 1000 to 10000 nM, respectively.

For the molecule `Cn1cnnc1C1CCN(c2c(C#N)cccc2-c2cnccc2O)CC1` [Example 7, 3-(4-hydroxypyridin-3-yl)-2-[4-(4-methyl-4H-1,2,4-triazol-3-yl)piperidin-1-yl]benzonitrile], the IC50 at QPCT (rhQPCT) and on QPCTL was 1000 to 10000 nM in each case.

`Cn1cnnc1C1CCN(c2c(C#N)cccc2-c2cnnn2C)CC1` [Example 104, 3-(1-methyl-1H-1,2,3-triazol-5-yl)-2-(4-(4-methyl-4H-1,2,4-triazol-3-yl)piperidin-1-yl)benzonitrile]: the IC50 on QPCT (rhQPCT) and on QPCTL was 100 to 1000 nM in each case.

In the case of `Cn1cnnc1C1CCN(c2c(C#N)cc(F)cc2-c2ccc(F)nc2)CC1` [Example 130, 5-fluoro-3-(6-fluoropyridin-3-yl)-2-(4-(4-methyl-4H-1,2,4-triazol-3-yl)piperidin-1-yl)benzonitrile], the half-inhibitory concentration (IC50) at QPCT (rhQPCT) and at QPCTL was 1000 to 10000 nM each time.

In the case of `Cn1cnnc1C1CCN(c2c(C#N)cccc2-c2ccc(F)cc2F)CC1` [Example 103, 2′,4′-difluoro-2-(4-(4-methyl-4H-1,2,4-triazol-3-yl)piperidin-1-yl)-[1,1′-biphenyl]-3-carbonitrile], the 50% inhibitory concentration (IC50) at QPCT (rhQPCT) was < 100 nM; on QPCTL it was 100 to 1000 nM.

In the case of “6′-fluoro-3-(4-(1-methyl-1H-imidazol-5-yl)piperidin-1-yl)-[2,3′-bipyridine]-4-carbonitrile [Example 134]”, the IC50 at QPCT (rhQPCT) and on QPCTL was < 100 nM each time.

Take `Cn1cnnc1N1CCN(c2c(-c3ccc(F)nc3)ccc(C3CC3)c2C#N)CC1` [Example 129, 6-cyclopropyl-3-(6-fluoropyridin-3-yl)-2-(4-(4-methyl-4H-1,2,4-triazol-3-yl)piperazin-1-yl)benzonitrile]: the IC50 on QPCT (rhQPCT) and on QPCTL was < 100 nM in each case.

For the molecule `Cn1cnnc1C1CCN(c2c(C#N)cccc2-c2ccc(F)c(F)c2)CC1` [Example 102, 3′,4′-difluoro-2-(4-(4-methyl-4H-1,2,4-triazol-3-yl)piperidin-1-yl)-[1,1′-biphenyl]-3-carbonitrile], the half-maximal inhibitory concentration (IC50) is < 100 nM at QPCT (rhQPCT) and 100 to 1000 nM on QPCTL.

For the molecule `Cn1cnnc1C1CCN(c2c(C#N)cccc2-c2cnc3cn[nH]c3c2)CC1` [Example 125, 2-(4-(4-methyl-4H-1,2,4-triazol-3-yl)piperidin-1-yl)-3-(1H-pyrazolo[4,3-b]pyridin-6-yl)benzonitrile], the IC50 on QPCT (rhQPCT) is < 100 nM; on QPCTL it was 100 to 1000 nM.

Regarding `Cn1cnnc1C1[C@H]2CN(c3c(C#N)cccc3-c3ccc(F)nc3)C[C@@H]12` (stereo partly drawn) [Example 75, 3-(6-fluoropyridin-3-yl)-2-((1R,5S)-6-(4-methyl-4H-1,2,4-triazol-3-yl)-3-azabicyclo[3.1.0]hexan-3-yl)benzonitrile], the IC50 on QPCT (rhQPCT) and at QPCTL was 100 to 1000 nM in each case.

On to `CN1CCOc2c(-c3cccc(C#N)c3N3CCC(c4nncn4C)CC3)cncc21` [Example 22, 3-{4-methyl-2H,3H,4H-pyrido[4,3-b][1,4]oxazin-8-yl}-2-[4-(4-methyl-4H-1,2,4-triazol-3-yl)piperidin-1-yl]benzonitrile], for which the IC50 on QPCT (rhQPCT) and at QPCTL was 100 to 1000 nM throughout.

As for `[2H]C([2H])([2H])Oc1ccc(-c2ccc(F)nc2)c(N2CCC(c3nncn3C)CC2)c1C#N` [Example 57, 3-(6-fluoropyridin-3-yl)-6-(methoxy-d3)-2-(4-(4-methyl-4H-1,2,4-triazol-3-yl)piperidin-1-yl)benzonitrile], the IC50 on QPCT (rhQPCT) and on QPCTL was < 100 nM in each case.

Turning to `Cc1cc(-c2c(F)ccc(C#N)c2N2CCC(c3nncn3C)CC2)cnc1F` [Example 53, 4-fluoro-3-(6-fluoro-5-methylpyridin-3-yl)-2-(4-(4-methyl-4H-1,2,4-triazol-3-yl)piperidin-1-yl)benzonitrile], the IC50 on QPCT (rhQPCT) and at QPCTL was < 100 nM in each case.

As to `[2H]C([2H])([2H])n1cnnc1C1CCN(c2c(-c3ccc(F)nc3)ccc(Cl)c2C#N)CC1` [Example 56, 6-chloro-3-(6-fluoropyridin-3-yl)-2-(4-(4-(methyl-d3)-4H-1,2,4-triazol-3-yl)piperidin-1-yl)benzonitrile], the IC50 on QPCT (rhQPCT) and at QPCTL was < 100 nM each time.

`COc1ccncc1-c1cccc(C#N)c1N1CCC(c2cnc(N)s2)CC1` [Example 17, 2-[4-(2-amino-1,3-thiazol-5-yl)piperidin-1-yl]-3-(4-methoxypyridin-3-yl)benzonitrile]: the IC50 at QPCT (rhQPCT) and on QPCTL was 100 to 1000 nM throughout.

Source of the values: patent US20240101544A1, “INHIBITORS OF QPCTL AND QPCT” (priority 2022, published 2024).
